Source: patent US20250360132A1, “METHODS OF ADMINISTERING MYOSIN INHIBITORS” (MYOKARDIA, INC., priority 2022, published 2025)

How the values were obtained:
BCRP = BCRP (Homo sapiens, UniProt Q9UNQ0); assay: In vitro transporter inhibition; format: in vitro ADME
[1] = Pre/postnatal development study; format: in vivo, rat; settings: female, rat, in vivo; oral, gestation Day 6 to lactation/post-partum Day 20; highest dosage level tested; read-out: no-observed-adverse-effect level (NOAEL)
Protocol: (§1) In a pre/postnatal development study, mavacamten was administered orally to pregnant rats (0.3, to 1.5 mg/kg/day) from gestation Day 6 to lactation/post-partum Day 20.

pregnant rats [2] = assay: Pre/postnatal development study; format: in vivo, rat; settings: 0.3 to 1.5 mg/kg/day
Protocol: as §1

[3] = test system: organic anion transporting polypeptides (OATPs); assay: In vitro transporter inhibition; format: in vitro ADME
Solubility = format: physicochemical
virtual oHCM patients = assay: Exposure-response simulation of titration Regimen #2; parameters: species or system human; settings: CYP2C19 phenotype distribution in the EU population
From the text: Mavacamten has substantial pharmacokinetic (PK) variability, the largest contributor being CYP2C19 phenotype. Beyond phenotype, and after incorporation of all PK covariates, a moderate inter-individual variability remains. As a result of the PK variability, there is a need to achieve an ideal balance of reducing the Valsalva left ventricular outflow tract gradient (VLVOT) while maintaining the patient's left ventricular ejection fraction (LVEF), and an echocardiogram (ECHO) based titration regimen was developed. Modeling and simulation analyses have been undertaken to further evaluate dose titration by CYP2C19 phenotype.
In addition, an exposure-response simulation-based approach was utilized to investigate multiple titration regimens using an equal distribution of CYP2C19 phenotype to allow for additional sensitivity in assessing the performance of the titration regimen for each phenotype. The evaluations included genotype specific dosing and titration, adjusted starting dose of 2.5 mg and additional monitoring intervals. For each posology investigated, the key objectives remained consistent: to limit the percent (%) of simulated patients experiencing LVEF <50%, while gradually up-titrating them to achieve VLVOT <30 mmHg. This Example outlines the evaluation of 3 titration regimens, described below.
The methods used to conduct the simulations are described as follows. […]

dogs = assay: Animal toxicology, dogs; format: in vivo
Protocol: (§2) The safety of mavacamten has been evaluated in rats and dogs at multiple dose levels (0.06 to 10 mg/kg/day) orally. […] Plasma exposures (AUC) at the NOAEL in rats and dogs were 0.1 and 0.3 times, respectively, human exposure (AUC) at the MRHD.

pregnant rats [4] = assay: Embryo-fetal development study in rats; format: in vivo, rat
From the text: Plasma exposure (based on area under the concentration-time curve or AUC) at the no-effect dose for embryo-fetal development in rats is 0.3 times the exposure in humans at the MRHD.

rats = assay: Animal toxicology, rats; format: in vivo
Protocol: as §2

CYP3A4 = CYP3A4 (Homo sapiens, UniProt P08684); assay: Metabolism, contribution of CYP3A4; format: in vitro ADME
From the text: Mavacamten is extensively metabolized, primarily through CYP2C19 (74%), CYP3A4 (18%), and CYP2C9 (8%).
Statement of Purpose: Mavacamten is a first-in-class, selective, allosteric, and reversible cardiac myosin inhibitor in development for the treatment of adults with symptomatic obstructive hypertrophic cardiomyopathy. Mavacamten is hepatically metabolized predominantly via CYP2C19 (74%), CYP3A4 (18%) and CYP2C9 (8%). A previously developed fit-for-purpose physiologically based pharmacokinetic (PBPK) model was applied to explore the induction effects of a strong CYP3A4/CYP2C19 inducer-rifampin, as well as a strong CYP3A4 inducer-carbamazepine, on mavacamten exposures.

healthy volunteers = assay: Cardiac electrophysiology (QTc) in healthy volunteers; format: in vivo, human
From the text: The mechanism of the QT prolongation effect is not known.

BSEP = BSEP (Homo sapiens, UniProt O95342); assay: In vitro transporter inhibition; format: in vitro ADME
MATE1 = MATE1 (Homo sapiens, UniProt Q96FL8); assay: In vitro transporter inhibition; format: in vitro ADME
MATE1, sequence (Q96FL8 whole entry): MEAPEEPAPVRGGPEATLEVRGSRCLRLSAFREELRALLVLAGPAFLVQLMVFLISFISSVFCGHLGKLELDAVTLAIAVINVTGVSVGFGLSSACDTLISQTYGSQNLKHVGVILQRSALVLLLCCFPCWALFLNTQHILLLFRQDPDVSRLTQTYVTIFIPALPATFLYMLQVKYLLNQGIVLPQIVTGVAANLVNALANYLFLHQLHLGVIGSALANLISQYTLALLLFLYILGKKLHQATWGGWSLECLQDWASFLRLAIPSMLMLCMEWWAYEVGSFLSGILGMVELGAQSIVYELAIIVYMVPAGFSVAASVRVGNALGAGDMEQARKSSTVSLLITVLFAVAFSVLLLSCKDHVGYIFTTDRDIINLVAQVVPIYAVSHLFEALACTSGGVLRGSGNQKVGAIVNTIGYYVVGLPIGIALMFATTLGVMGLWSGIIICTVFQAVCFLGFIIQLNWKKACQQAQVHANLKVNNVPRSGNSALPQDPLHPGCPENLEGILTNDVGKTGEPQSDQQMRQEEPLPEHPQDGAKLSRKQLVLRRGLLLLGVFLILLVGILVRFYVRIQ

BSEP, sequence (O95342 whole entry): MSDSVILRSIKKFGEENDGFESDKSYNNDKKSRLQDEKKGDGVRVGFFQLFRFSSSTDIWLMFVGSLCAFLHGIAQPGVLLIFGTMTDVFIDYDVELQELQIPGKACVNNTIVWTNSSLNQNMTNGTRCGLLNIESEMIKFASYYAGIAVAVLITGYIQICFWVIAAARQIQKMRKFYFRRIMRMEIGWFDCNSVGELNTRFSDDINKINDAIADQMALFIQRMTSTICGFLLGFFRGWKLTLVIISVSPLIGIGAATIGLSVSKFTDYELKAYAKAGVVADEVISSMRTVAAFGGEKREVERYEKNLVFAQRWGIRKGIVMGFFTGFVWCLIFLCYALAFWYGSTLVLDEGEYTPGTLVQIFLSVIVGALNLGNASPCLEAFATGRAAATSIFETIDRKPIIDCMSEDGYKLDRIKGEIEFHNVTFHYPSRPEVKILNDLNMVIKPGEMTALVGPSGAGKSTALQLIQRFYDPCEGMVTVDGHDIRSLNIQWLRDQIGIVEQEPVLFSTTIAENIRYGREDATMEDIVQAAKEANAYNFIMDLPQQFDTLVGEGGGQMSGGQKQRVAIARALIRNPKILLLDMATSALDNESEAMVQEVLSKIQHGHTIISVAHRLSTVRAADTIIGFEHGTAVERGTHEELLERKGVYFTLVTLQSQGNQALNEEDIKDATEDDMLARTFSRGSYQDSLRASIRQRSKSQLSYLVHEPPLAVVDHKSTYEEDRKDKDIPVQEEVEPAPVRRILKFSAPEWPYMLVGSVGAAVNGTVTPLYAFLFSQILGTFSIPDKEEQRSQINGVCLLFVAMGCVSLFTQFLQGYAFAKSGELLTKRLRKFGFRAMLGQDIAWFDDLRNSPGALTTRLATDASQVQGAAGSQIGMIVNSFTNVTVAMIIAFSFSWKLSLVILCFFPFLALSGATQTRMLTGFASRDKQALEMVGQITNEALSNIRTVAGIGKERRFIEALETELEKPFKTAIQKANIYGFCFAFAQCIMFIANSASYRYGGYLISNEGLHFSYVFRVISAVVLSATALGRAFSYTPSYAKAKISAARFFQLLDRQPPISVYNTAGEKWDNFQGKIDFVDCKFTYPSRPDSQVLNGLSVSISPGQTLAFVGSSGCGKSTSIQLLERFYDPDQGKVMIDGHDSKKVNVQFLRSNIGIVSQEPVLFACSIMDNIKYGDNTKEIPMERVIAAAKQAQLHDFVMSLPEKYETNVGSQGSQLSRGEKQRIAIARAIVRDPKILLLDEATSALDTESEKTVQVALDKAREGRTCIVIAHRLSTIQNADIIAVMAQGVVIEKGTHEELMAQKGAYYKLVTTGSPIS
BCRP, sequence (Q9UNQ0 whole entry): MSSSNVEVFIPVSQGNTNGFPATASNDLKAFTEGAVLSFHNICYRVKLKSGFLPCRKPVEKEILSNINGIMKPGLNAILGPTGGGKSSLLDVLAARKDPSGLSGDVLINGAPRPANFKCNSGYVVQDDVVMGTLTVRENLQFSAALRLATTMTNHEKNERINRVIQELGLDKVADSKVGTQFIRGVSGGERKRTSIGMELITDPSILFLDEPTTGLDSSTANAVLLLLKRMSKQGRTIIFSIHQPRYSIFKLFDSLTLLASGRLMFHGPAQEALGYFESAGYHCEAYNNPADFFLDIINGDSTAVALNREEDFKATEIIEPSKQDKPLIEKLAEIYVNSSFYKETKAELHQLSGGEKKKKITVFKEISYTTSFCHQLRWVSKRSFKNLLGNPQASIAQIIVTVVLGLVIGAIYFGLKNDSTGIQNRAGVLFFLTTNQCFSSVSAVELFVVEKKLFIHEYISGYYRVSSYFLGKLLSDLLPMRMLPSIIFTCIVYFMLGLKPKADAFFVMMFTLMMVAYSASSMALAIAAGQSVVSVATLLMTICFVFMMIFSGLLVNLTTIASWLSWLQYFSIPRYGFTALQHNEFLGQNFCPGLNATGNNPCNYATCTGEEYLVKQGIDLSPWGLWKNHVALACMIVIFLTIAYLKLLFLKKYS
CYP3A4, sequence (P08684 whole entry): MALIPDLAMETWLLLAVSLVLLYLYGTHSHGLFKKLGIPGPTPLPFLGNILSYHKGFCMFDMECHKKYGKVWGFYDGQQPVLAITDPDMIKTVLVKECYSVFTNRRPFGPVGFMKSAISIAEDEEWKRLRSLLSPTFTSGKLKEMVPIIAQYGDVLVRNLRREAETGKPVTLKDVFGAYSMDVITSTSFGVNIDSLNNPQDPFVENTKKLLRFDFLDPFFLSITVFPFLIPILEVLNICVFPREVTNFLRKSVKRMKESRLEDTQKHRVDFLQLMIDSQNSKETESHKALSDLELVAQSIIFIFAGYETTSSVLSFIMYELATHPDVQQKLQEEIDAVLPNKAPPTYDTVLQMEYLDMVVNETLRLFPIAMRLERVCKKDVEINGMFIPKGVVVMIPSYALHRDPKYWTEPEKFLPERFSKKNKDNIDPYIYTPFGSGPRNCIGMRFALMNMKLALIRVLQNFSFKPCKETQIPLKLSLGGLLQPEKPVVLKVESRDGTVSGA

CC(C)n1c(=O)cc(N[C@@H](C)c2ccccc2)[nH]c1=O [mavacamten, (S)-3-Isopropyl-6-((1-phenylethyl)amino)pyrimidine-2,4(1H,3H)-dione]
Inhibition of BCRP (BCRP): does not inhibit
NOAEL [1]: 1.5 mg/kg/day
Effects in dams or offspring (pregnant rats [2]): No adverse effects were observed in the dams or offspring
Inhibition of OATPs [3]: does not inhibit
Solubility in DMSO and NMP (Solubility): freely soluble
Solubility in methanol and ethanol (Solubility): sparingly soluble
Solubility in water and aqueous buffers (Solubility; pH 2-10): practically insoluble
patients excluded/permanently discontinued overall (virtual oHCM patients): < 0.5%
Plasma exposure (AUC) at the NOAEL vs human exposure at the MRHD (dogs): 0.3 times
Embryo-fetal findings in the high dose group (pregnant rats [4]; oral, 1.5 mg/kg/day, period of organogenesis): increases in post-implantation loss, decreases in mean fetal body weight, reductions in fetal ossification of bones, and fetal malformations (visceral and skeletal)
Plasma exposure (AUC) at the no-effect dose for embryo-fetal development vs humans at the MRHD (pregnant rats [4]; rats): 0.3 times
Embryo-fetal findings (risk summary) (pregnant rats [4]; rats, dose exposures similar to that at the MRHD): decreases in mean fetal body weight, reductions in fetal ossification of bones, and increases in post-implantation loss
Plasma exposure (AUC) at the NOAEL vs human exposure at the MRHD (rats): 0.1 times
Metabolism through CYP3A4 (CYP3A4): 18%
QTc interval effect, multiple doses (healthy volunteers; doses up to 25 mg once daily): concentration-dependent increase in the QTc interval
QTc interval effect, single-dose studies (healthy volunteers; similar exposures): No acute QTc changes
Inhibition of BSEP (BSEP): does not inhibit
Inhibition of MATE1 (MATE1): does not inhibit
